Experimental data from the supplement of paper PMC4862054.

Experiments:
Conditions in all cases: incubation time: 72 h
[1] = system: HDQ-P1; test: drug sensitivity score (DSS), CellTox Green (DSS (AUC-based score)); higher = stronger drug effect (viability inhibition or cytotoxicity); extreme values may be limits of the assay
In short: (§1)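 Breast cancer cells were seeded into 384-well plates containing compound at 5 concentrations in 10-fold steps over a compound-specific 10,000-fold range and incubated 72 h. After CellTox Green and CellTiter-Glo readings, each plate was normalised to 0.1 % DMSO and a positive kill control. The drug sensitivity score rests on the area under the fitted dose-response curve.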

[2] = system: HCC1937; test: as above
In short: as §1

[3] = system: Hs578T; test: as above
In short: as §1

[4] = system: MDA-MB-231; test: as above
In short: as §1

[5] = system: BT-474; test: as above
In short: as §1

[6] = system: CAL-51; test: as above
In short: as §1

[7] = system: MCF-10A; test: as above
In short: as §1

[8] = system: MDA-MB-453; test: as above
In short: as §1

[9] = system: CAL-120; test: as above
In short: as §1

[10] = system: BT-549; test: as above
In short: as §1

[11] = system: HCC1599; test: as above
In short: as §1

[12] = system: HCC1143; test: as above
In short: as §1

[13] = system: CAL-85-1; test: as above
In short: as §1

[14] = system: DU-4475; test: as above
In short: as §1

[15] = system: MDA-MB-436; test: as above
In short: as §1

[16] = system: MDA-MB-468; test: as above
In short: as §1

[17] = system: HDQ-P1; test: normalised viability (% of control), CellTiter-Blue; higher = more viable cells (about 100 = DMSO control)
In short: (§2)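 Compound dissolved in 5 µl medium was pre-loaded into 384-well plates, and breast cancer cell lines in 20 µl suspension were seeded on top and incubated 72 h. After adding 2.5 µl CellTiter-Blue reagent for 2 h at 37 °C, fluorescence was read at 560/590 nm. Plates were normalised to vehicle (100) and a positive kill control (0), with Z'-factor quality control. Each value is normalised viability at a single listed concentration from the series.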

[18] = system: HCC1937; test: as above
In short: as §2

[19] = system: MDA-MB-231; test: as above
In short: as §2

[20] = system: BT-474; test: as above
In short: as §2

[21] = system: CAL-51; test: as above
In short: as §2

[22] = system: HCC1599; test: as above
In short: as §2

[23] = system: HCC1143; test: as above
In short: as §2

[24] = system: DU-4475; test: as above
In short: as §2

[25] = system: MDA-MB-468; test: as above
In short: as §2

C=CCn1c(=O)c2cnc(Nc3ccc(N4CCN(C)CC4)cc3)nc2n1-c1cccc(C(C)(C)O)n1 [MK1775]
Conditions | drug sensitivity score
[1] | 9.56
[2] | 0
[3] | 9.43
[4] | 19.8
[5] | 6.62
[6] | 15.7
[7] | 8.71
[8] | 0
[9] | 4.54
[10] | 9.39
[11] | 4.9
[12] | 3.3
[13] | 16.5
[14] | 0
[15] | 13.8
[16] | 11.1

normalised viability [%]
Conditions | [17] | [18] | [19] | [20] | [21] | [22] | [23] | [24] | [25]
3 nM | 92.9 | – | – | – | 98.9 | – | – | 87.8 | –
10 nM | – | 77.7 | 84 | 94 | – | 86.4 | 109 | – | 110
30 nM | 98.5 | – | – | – | 90.8 | – | – | 98.3 | –
100 nM | 94.4 | – | – | – | 87 | – | – | 75.7 | –
1000 nM | – | 34.1 | 26.9 | 33.9 | – | 59 | 55.7 | – | 46.3
10000 nM | – | 27.2 | 16.9 | 35.7 | – | 45.3 | 23.7 | – | 10.1

CC(=O)[C@]1(O)Cc2c(O)c3c(c(O)c2[C@@H](O[C@H]2C[C@H](N)[C@H](O)[C@H](C)O2)C1)C(=O)c1ccccc1C3=O [Idarubicin]
Conditions | drug sensitivity score
[1] | 0
[2] | 0
[3] | 0
[4] | 0
[5] | 4.95
[6] | 9.49
[7] | 1.59
[8] | 0
[9] | 0
[10] | 0
[11] | 0
[12] | 0
[13] | 8.04
[14] | 0.488
[15] | 0
[16] | 10.5

normalised viability [%]
Conditions | [17] | [18] | [19] | [20] | [21] | [22] | [23] | [24] | [25]
0.3 nM | 118 | – | – | – | 106 | – | – | 89.8 | –
1 nM | – | 90.3 | 101 | 97.3 | – | 111 | 96 | – | 100
3 nM | 120 | – | – | – | 98 | – | – | 90.2 | –
10 nM | 104 | – | – | – | 44.2 | – | – | 55.7 | –
100 nM | – | 22.1 | 41.5 | 61.8 | – | 102 | 61 | – | 41.2
1000 nM | – | 21.3 | 8.68 | 7.38 | – | 49.2 | 30.1 | – | 4.98

COc1cc(Nc2c(C#N)cnc3cc(OCCCN4CCN(C)CC4)c(OC)cc23)c(Cl)cc1Cl [Bosutinib]
Conditions | drug sensitivity score
[1] | 3.06
[2] | 1.87
[3] | 3.59
[4] | 7.99
[5] | 5.18
[6] | 5.81
[7] | 7.8
[8] | 1.6
[9] | 0
[10] | 1.47
[11] | 0.637
[12] | 0
[13] | 8.13
[14] | 0
[15] | 2.19
[16] | 5.02

normalised viability [%]
Conditions | [17] | [18] | [19] | [20] | [21] | [22] | [23] | [24] | [25]
3 nM | 109 | – | – | – | 115 | – | – | 105 | –
10 nM | – | 106 | 98.9 | 113 | – | 131 | 83.8 | – | 104
30 nM | 121 | – | – | – | 114 | – | – | 108 | –
100 nM | 104 | – | – | – | 120 | – | – | 86.5 | –
1000 nM | – | 84.9 | 142 | 94.6 | – | 93.3 | 73 | – | 95.2
10000 nM | – | 8.95 | 2.42 | 6.35 | – | 51.7 | 48.9 | – | 14.5

Nc1ccn([C@@H]2O[C@H](CO)[C@@H](O)C2(F)F)c(=O)n1 [Gemcitabine]
Conditions | drug sensitivity score
[1] | 0
[2] | 0
[3] | 0
[4] | 0
[5] | 0
[6] | 13.4
[7] | 0
[8] | 0
[9] | 0
[10] | 0
[11] | 0
[12] | 0
[13] | 4.04
[14] | 0
[15] | 0
[16] | 19.7

normalised viability [%]
Conditions | [17] | [18] | [19] | [20] | [21] | [22] | [23] | [24] | [25]
0.3 nM | 110 | – | – | – | 102 | – | – | 95.1 | –
1 nM | – | 92.3 | 97.9 | 119 | – | 99.4 | 101 | – | 104
3 nM | 108 | – | – | – | 98 | – | – | 88.3 | –
10 nM | 100 | – | – | – | 83.2 | – | – | 98.2 | –
100 nM | – | 38.8 | 72.1 | 103 | – | 65.9 | 49.7 | – | 35.5
1000 nM | – | 27.9 | 72.2 | 101 | – | 25.4 | 45.8 | – | 24.6

CO[C@@H]1[C@H](N(C)C(=O)c2ccccc2)C[C@H]2O[C@]1(C)n1c3ccccc3c3c4c(c5c6ccccc6n2c5c31)C(=O)NC4 [Midostaurin]
Conditions | drug sensitivity score
[1] | 1.96
[2] | 0
[3] | 11.5
[4] | 7.87
[5] | 0.973
[6] | 29.9
[7] | 0
[8] | 0
[9] | 3.96
[10] | 12.6
[11] | 0
[12] | 0
[13] | 0
[14] | 0
[15] | 0
[16] | 17

normalised viability [%]
Conditions | [17] | [18] | [19] | [20] | [21] | [22] | [23] | [24] | [25]
3 nM | 84.7 | – | – | – | 97.5 | – | – | 94.7 | –
10 nM | – | 111 | 92.8 | 105 | – | 106 | 145 | – | 98.5
30 nM | 95.7 | – | – | – | 87.9 | – | – | 92.4 | –
100 nM | 96.8 | – | – | – | 82.4 | – | – | 101 | –
1000 nM | – | 56.5 | 49.1 | 91.3 | – | 78.8 | 75 | – | 46.6
10000 nM | – | 44.9 | 42.4 | 84.3 | – | 72.6 | 61.3 | – | 41.4

C/C(=C\c1csc(C)n1)[C@@H]1C[C@@H]2O[C@]2(C)CCC[C@H](C)[C@H](O)[C@@H](C)C(=O)C(C)(C)[C@@H](O)CC(=O)N1 [Ixabepilone]
Conditions | drug sensitivity score
[1] | 0
[2] | 0
[3] | 0
[4] | 0.915
[5] | 0
[6] | 11.7
[7] | 0
[8] | 0
[9] | 0
[10] | 5.33
[11] | 0
[12] | 0
[13] | 4.02
[14] | 0
[15] | 0
[16] | 1.3

normalised viability [%]
Conditions | [17] | [18] | [19] | [20] | [21] | [22] | [23] | [24] | [25]
0.3 nM | 91.1 | – | – | – | 110 | – | – | 95.4 | –
1 nM | – | 87.5 | 84.7 | 109 | – | 98.5 | 79.3 | – | 97.8
3 nM | 76.4 | – | – | – | 107 | – | – | 77 | –
10 nM | 95.3 | – | – | – | 107 | – | – | 92.4 | –
100 nM | – | 89.1 | 51.6 | 115 | – | 87.6 | 80.7 | – | 88.5
1000 nM | – | 17.2 | 16.8 | 26 | – | 81.2 | 25.6 | – | 45.4

CC(C)C[C@H](NC(=O)[C@@H](COC(C)(C)C)NC(=O)[C@H](Cc1ccc(O)cc1)NC(=O)[C@H](CO)NC(=O)[C@H](Cc1c[nH]c2ccccc12)NC(=O)[C@H](Cc1cnc[nH]1)NC(=O)[C@@H]1CCC(=O)N1)C(=O)N[C@@H](CCCNC(=N)N)C(=O)N1CCC[C@H]1C(=O)NNC(N)=O [Goserelin]
Conditions | drug sensitivity score
[1] | 0.917
[2] | 0
[3] | 1.59
[4] | 0
[5] | 0.105
[6] | 0
[7] | 0
[8] | 0
[9] | 0
[10] | 0
[11] | 0
[12] | 0
[13] | 0
[14] | 0
[15] | 0
[16] | 0

normalised viability [%]
Conditions | [17] | [18] | [19] | [20] | [21] | [22] | [23] | [24] | [25]
3 nM | 104 | – | – | – | 107 | – | – | 91.4 | –
10 nM | – | 104 | 102 | 115 | – | 107 | 82.8 | – | 96.5
30 nM | 109 | – | – | – | 104 | – | – | 84 | –
100 nM | 103 | – | – | – | 105 | – | – | 111 | –
1000 nM | – | 85.1 | 110 | 111 | – | 83.8 | 95 | – | 94.5
10000 nM | – | 97.4 | 114 | 131 | – | 90.2 | 89 | – | 108

COc1ccc(S(=O)(=O)Nc2cccnc2Nc2ccc(O)cc2)cc1 [ABT-751]
Conditions | drug sensitivity score
[1] | 0
[2] | 0
[3] | 7.06
[4] | 8.51
[5] | 0
[6] | 1.79
[7] | 4
[8] | 0
[9] | 0.145
[10] | 10.2
[11] | 0
[12] | 0
[13] | 12
[14] | 0
[15] | 9.27
[16] | 4.39

normalised viability [%]
Conditions | [17] | [18] | [19] | [20] | [21] | [22] | [23] | [24] | [25]
3 nM | 91.2 | – | – | – | 114 | – | – | 88.8 | –
10 nM | – | 86.8 | 89.3 | 112 | – | 112 | 83.8 | – | 105
30 nM | 102 | – | – | – | 107 | – | – | 95.2 | –
100 nM | 107 | – | – | – | 107 | – | – | 89.9 | –
1000 nM | – | 24.7 | 28.8 | 60.7 | – | 85.6 | 56.1 | – | 55.9
10000 nM | – | 14 | 14.7 | 54 | – | 40.4 | 29.1 | – | 34.7
